Test system: 616215-338-R-J1-PDC complex spheroids, viability % test/control
Experiment: Anticancer human tumor 616215-338-R-J1-PDC patient-derived colon adenocarcinoma cell line growth inhibition [CLK]
Details: for IC50: curve of first compound; for viability, T/C: stronger effect = lower value
Source text: A high-throughput screen of multi-cell type tumor spheroids was designed to identify active combinations of […] and targeted small molecules. Complex spheroids include a stromal component modeled by human endothelial cells (HUVEC) and fibroblasts modeled by human mesenchymal stem cells (MSCs). The concentration ranges selected for each drug and investigational agent were based upon clinically achievable concentrations if the clinical Cmax of the agent was known.
Compounds. The drugs and investigational agents: cirtuvivint (SM08502; NSC835563), CC-671 (NSC850746), vemurafenib (NSC761431), tapotoclax (NSC804041), sotorasib (NSC818433), adagrasib (NSC831453), MRTX-1133 (NSC836407), BAY2416964 (NSC825713), copanlisib (NSC816437), inavolisib (NSC800729), abemaciclib (NSC768073), osimertinib (NSC779217), entinostat (NSC756642), eltanexor (KPT-8602, NSC794443), venetoclax (NSC766270), ceralasertib (NSC777638), bortezomib (NSC756655), olaparib (NSC753686), talazoparib (NSC767125), alisertib (NSC759677), peposertib (NSC802822), gemcitabine (NSC613327), 5-fluorouracil (NSC19893), SN-38 (NSC673596), oxaliplatin (NSC266046), paclitaxel (NSC125973), and doxorubicin (NSC123127), were obtained from the National Cancer Institute (NCI) Developmental Therapeutics Program Chemical Repository. The FDA-approved anticancer drug set is available from the Developmental Therapeutics Program at https://dtp.cancer.gov/organization/dscb/obtaining/available plates.htm. […] The stock solutions were prepared in dimethyl sulfoxide (DMSO, Sigma-Aldrich, St. Louis, MO, cat. D2650), except for the platinum complexes which were prepared in saline (Quality Biological, Gaithersburg, MD, cat. 114-055-101), at 800-fold the tested concentration and stored at -70 degrees C prior to their use. All drugs and investigational agents were tested over a range starting from a high concentration at or near the clinical Cmax and decreasing in half-log increments. If the clinical Cmax for an agent had not been determined, the highest concentration tested was 10 microM.
Cell Culture. All cells were maintained in an incubator at 37 degrees C and 5% CO2 with 95% humidity. The PDC lines were cultured according to standard operating procedures established by the NCI PDMR. Briefly, all PDCs were thawed and cultured in Matrigel-coated flasks prepared with a working solution of 1X Ham's F-12 nutrient mix, without supplementation (Invitrogen, Waltham, MA, cat. 11765054), 100 U/mL penicillin-streptomycin (Invitrogen, cat. 15140122), and 2.5% Matrigel (Corning Inc., Corning, NY, cat. 354248) for the first three passages. The 947758-054-R-J2-PDC line was cultured in 6B/Colon 1A media, which includes advanced DMEM/F-12 (Thermo Fisher Scientific, cat. 12634028), 10 mM HEPES (Thermo Fisher Scientific, cat. 15630080), 1X GlutaMAX supplement (Thermo Fisher Scientific, cat. 35050061), 0.1 mg/mL primocin (InvivoGen, cat. ant-pm-2), 10% defined fetal bovine serum, heat inactivated (HyClone Laboratories Inc., cat. SH30070.03HI), 1.25 mM N-Acetyl-L-cysteine (Sigma-Aldrich, cat. A9165), 10 mM nicotinamide (Sigma-Aldrich, cat. N0636), 1X B-27 supplement (Thermo Fisher Scientific, cat. 17504044), 1X N-2 supplement (Thermo Fisher Scientific, cat. 17502048), and 10 microM Y-27632 dihydrochloride (Tocris Bioscience, cat. 1254). The 876862-298-R-J1-PDC was cultured in 6E media, which includes all 6B/Colon 1A media components plus 50% L-WRN conditioned media (ATCC, cat. CRL-3276), 50 ng/mL recombinant human EGF recombinant protein (hEGF; Thermo Fisher Scientific, cat. PHG0311), 10 ng/mL recombinant human fibroblast growth factor 10 (hGFG-10; PeproTech, cat. 100-26), 1 ng/mL recombinant human fibroblast growth factor 2 (hFGF-2; PeproTech, cat. 100-18B), and 1 µM prostaglandin E2 (PGE2; Tocris, cat. 2296). The 227483-062-R1-J1-PDC line was cultured in Panc media, containing all 6E components except hFGF-2, with the addition of 500 nM SB-431542 (Selleckchem, cat. S1067) and 10 nM gastrin (Tocris, cat. 3006). […]

[1] = second compound 0.0316 µM, first compound 0.0316 µM
[2] = second compound 0.0316 µM, first compound 0.1 µM
[3] = second compound 0.0316 µM, first compound 0.316 µM
[4] = second compound 0.0316 µM, first compound 1 µM
[5] = second compound 0.0316 µM, first compound 3.16 µM
[6] = second compound 0.0316 µM, first compound 10 µM
[7] = second compound 0.1 µM, first compound 0.0316 µM
[8] = second compound 0.1 µM, first compound 0.1 µM
[9] = second compound 0.1 µM, first compound 0.316 µM
[10] = second compound 0.1 µM, first compound 1 µM
[11] = second compound 0.1 µM, first compound 3.16 µM
[12] = second compound 0.1 µM, first compound 10 µM
[13] = second compound 0.316 µM, first compound 0.0316 µM
[14] = second compound 0.316 µM, first compound 0.1 µM
[15] = second compound 0.316 µM, first compound 0.316 µM
[16] = second compound 0.316 µM, first compound 1 µM
[17] = second compound 0.316 µM, first compound 3.16 µM
[18] = second compound 0.316 µM, first compound 10 µM
[19] = second compound 1 µM, first compound 0.0316 µM
[20] = second compound 1 µM, first compound 0.1 µM
[21] = second compound 1 µM, first compound 0.316 µM
[22] = second compound 1 µM, first compound 1 µM
[23] = second compound 1 µM, first compound 3.16 µM
[24] = second compound 1 µM, first compound 10 µM
[25] = second compound 3.16 µM, first compound 0.0316 µM
[26] = second compound 3.16 µM, first compound 0.1 µM
[27] = second compound 3.16 µM, first compound 0.316 µM
[28] = second compound 3.16 µM, first compound 1 µM
[29] = second compound 3.16 µM, first compound 3.16 µM
[30] = second compound 3.16 µM, first compound 10 µM
[31] = second compound 10 µM, first compound 0.0316 µM
[32] = second compound 10 µM, first compound 0.1 µM
[33] = second compound 10 µM, first compound 0.316 µM
[34] = second compound 10 µM, first compound 1 µM
[35] = second compound 10 µM, first compound 3.16 µM
[36] = second compound 10 µM, first compound 10 µM
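Also: spheroids exposed to agents for 7 days.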
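For viability, T/C in this document: 100% = DMSO vehicle wells.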

Compound `CC(=O)O[C@H]1C(=O)[C@@]2(C)[C@H]([C@H](OC(=O)c3ccccc3)[C@]3(O)C[C@H](OC(=O)[C@H](O)[C@@H](NC(=O)c4ccccc4)c4ccccc4)C(C)=C1C3(C)C)[C@]1(OC(C)=O)CO[C@@H]1C[C@@H]2O` + CN1CCN(c2cc(C(=O)Nc3cc4cc(-c5cnn(C)c5)ccc4cn3)ccn2)CC1 has an IC50 (second compound 0.0316 µM) of less than 31.6 nM, an IC50 (second compound 0.1 µM) of less than 31.6 nM and an IC50 (second compound 0.316 µM) of less than 31.6 nM. It also gave an IC50 (second compound 1 µM) of less than 31.6 nM, an IC50 (second compound 3.16 µM) of less than 31.6 nM and an IC50 (second compound 10 µM) of less than 31.6 nM. The viability, T/C [1] was 31.2%, the viability, T/C [2] was 21.8% and the viability, T/C [3] was 14.7%. For the same compound, the viability, T/C [4] was 18%, the viability, T/C [5] was 18.6% and the viability, T/C [6] was 22.4%. The viability, T/C [7] was 31.1%, the viability, T/C [8] was 17.9% and the viability, T/C [9] was 19.9%. It also gave a viability, T/C [10] of 16.4%, a viability, T/C [11] of 17.4% and a viability, T/C [12] of 25.2%. For the same compound, the viability, T/C [13] was 21.8%, the viability, T/C [14] was 18% and the viability, T/C [15] was 19.3%. The viability, T/C [16] was 16.1%, the viability, T/C [17] was 19.9% and the viability, T/C [18] was 20.5%. For the same compound, the viability, T/C [19] was 0.09%, the viability, T/C [20] was 0.12% and the viability, T/C [21] was 3.34%. For the same compound, the viability, T/C [22] was 0.08%, the viability, T/C [23] was 0.1% and the viability, T/C [24] was 3.08%. The viability, T/C [25] was 0.05%, the viability, T/C [26] was 0.11% and the viability, T/C [27] was 0.13%. For the same compound, the viability, T/C [28] was 0.1%, the viability, T/C [29] was 1.96% and the viability, T/C [30] was 2.3%. The viability, T/C [31] was 0.06%, the viability, T/C [32] was 0.13% and the viability, T/C [33] was 0.17%. It also gave a viability, T/C [34] of 0.16%, a viability, T/C [35] of 0.19% and a viability, T/C [36] of 1.72%.
`CC1(C)CCC(CN2CCN(c3ccc(C(=O)NS(=O)(=O)c4ccc(NCC5CCOCC5)c([N+](=O)[O-])c4)c(Oc4cnc5[nH]ccc5c4)c3)CC2)=C(c2ccc(Cl)cc2)C1` + CNC(=O)c1ccc(Nc2nc(OC3CCCC3)c3c(-c4ccc5nc(C)oc5c4)c[nH]c3n2)c(OC)c1 gave an IC50 (second compound 0.0316 µM) greater than 10000 nM, an IC50 (second compound 0.1 µM) of 416 nM and an IC50 (second compound 0.316 µM) of less than 31.6 nM. It also gave an IC50 (second compound 1 µM) of less than 31.6 nM, an IC50 (second compound 3.16 µM) of less than 31.6 nM and an IC50 (second compound 10 µM) of less than 31.6 nM. It also gave a viability, T/C [1] of 101%, a viability, T/C [2] of 99.1% and a viability, T/C [3] of 92.8%. It also gave a viability, T/C [4] of 100%, a viability, T/C [5] of 80% and a viability, T/C [6] of 91.5%. For the same compound, the viability, T/C [7] was 55.3%, the viability, T/C [8] was 50.6% and the viability, T/C [9] was 50.9%. The viability, T/C [10] was 42.8%, the viability, T/C [11] was 18.5% and the viability, T/C [12] was 56.7%. It also gave a viability, T/C [13] of 46.6%, a viability, T/C [14] of 49% and a viability, T/C [15] of 45.4%. The viability, T/C [16] was 33.9%, the viability, T/C [17] was 21.2% and the viability, T/C [18] was 45.7%. For the same compound, the viability, T/C [19] was 50.9%, the viability, T/C [20] was 48.2% and the viability, T/C [21] was 46.2%. For the same compound, the viability, T/C [22] was 35.9%, the viability, T/C [23] was 20.5% and the viability, T/C [24] was 48.9%. It also gave a viability, T/C [25] of 38.8%, a viability, T/C [26] of 42.5% and a viability, T/C [27] of 44.6%. It also gave a viability, T/C [28] of 33.3%, a viability, T/C [29] of 24.8% and a viability, T/C [30] of 50.7%. For the same compound, the viability, T/C [31] was 36.3%, the viability, T/C [32] was 42% and the viability, T/C [33] was 41.7%. It also gave a viability, T/C [34] of 41%, a viability, T/C [35] of 27.2% and a viability, T/C [36] of 41.7%.
For `COc1c(OCCCN2CCOCC2)ccc2c3n(c(=NC(=O)c4cnc(N)nc4)nc12)CCN3` + CNC(=O)c1ccc(Nc2nc(OC3CCCC3)c3c(-c4ccc5nc(C)oc5c4)c[nH]c3n2)c(OC)c1, the IC50 (second compound 0.0316 µM) was 208 nM, the IC50 (second compound 0.1 µM) was 45.9 nM and the IC50 (second compound 0.316 µM) was less than 3.16 nM. It also gave an IC50 (second compound 1 µM) of less than 3.16 nM, an IC50 (second compound 3.16 µM) of less than 3.16 nM and an IC50 (second compound 10 µM) of less than 3.16 nM. It also gave a viability, T/C (second compound 0.0316 µM, first compound 0.00316 µM) of 92.4%, a viability, T/C (second compound 0.0316 µM, first compound 0.01 µM) of 94.7% and a viability, T/C [1] of 115%. The viability, T/C [2] was 69.1%, the viability, T/C [3] was 45.7% and the viability, T/C [4] was 32.3%. For the same compound, the viability, T/C (second compound 0.1 µM, first compound 0.00316 µM) was 62.4%, the viability, T/C (second compound 0.1 µM, first compound 0.01 µM) was 61.5% and the viability, T/C [7] was 57.7%. The viability, T/C [8] was 34%, the viability, T/C [9] was 26.6% and the viability, T/C [10] was 26.1%. The viability, T/C (second compound 0.316 µM, first compound 0.00316 µM) was 41.4%, the viability, T/C (second compound 0.316 µM, first compound 0.01 µM) was 39.3% and the viability, T/C [13] was 26.5%. For the same compound, the viability, T/C [14] was 20.6%, the viability, T/C [15] was 14.5% and the viability, T/C [16] was 12.5%. The viability, T/C (second compound 1 µM, first compound 0.00316 µM) was 32.9%, the viability, T/C (second compound 1 µM, first compound 0.01 µM) was 30.1% and the viability, T/C [19] was 21.2%. It also gave a viability, T/C [20] of 13.1%, a viability, T/C [21] of 9.29% and a viability, T/C [22] of 9.49%. It also gave a viability, T/C (second compound 3.16 µM, first compound 0.00316 µM) of 35.6%, a viability, T/C (second compound 3.16 µM, first compound 0.01 µM) of 31.1% and a viability, T/C [25] of 21.4%. It also gave a viability, T/C [26] of 12%, a viability, T/C [27] of 9.19% and a viability, T/C [28] of 8.84%. For the same compound, the viability, T/C (second compound 10 µM, first compound 0.00316 µM) was 35.3%, the viability, T/C (second compound 10 µM, first compound 0.01 µM) was 29.4% and the viability, T/C [31] was 19.2%. It also gave a viability, T/C [32] of 11.1%, a viability, T/C [33] of 10.4% and a viability, T/C [34] of 7.75%.

From PubChem BioAssay AID2060610 (Molecular Pharmacology Branch, DTP, NCI, 2025)
